Measurements taken from patent US6849709B2, “Aerothricin derivatives” (Basilea Pharmaceutica AG, priority 2000, dated 2005).
*1 amine or outer side, *2 acyl side, *3 side chain or, on linkers, in order; H or OH if unused. Where a SMILES comes first, the peptide text is derived from it. Bridges are numbered along the chain shown (N, C = ends). Side-chain parts run from the residue outwards. [ ]: non-standard residue; d: D form. The star is where a group is joined. ξ: configuration not given here. pTerphenylCO(4''-OnC5H11) = CCCCCOc1ccc(-c2ccc(-c3ccc(C(=O)*)cc3)cc2)cc1; Orn(4R-OH,5R-OH) = O=C([C@H](C[C@@H](O)[C@@H](O)N[*:3])N[*:1])[*:2]; hTyr(3S-OH,4S-OH) = N[C@H](C(=O)O)[C@H](O)[C@@H](O)c1ccc(O)cc1; Orn(Nα,Nα-(2-aminoethyl)2) = NCCC[C@@H](C(=O)*)N(CCN)CCN; X2 = NCCC[C@H](N)C(=O)N(CCCN)CCC[C@H](N[*:1])C(=O)[*:2]; NαBis(2-aminoethyl)dOrn = NCCC[C@H](C(=O)*)N(CCN)CCN; Pro(3S-OH,4S-Me) = C[C@H]1CN[C@H](C(=O)O)[C@H]1O; X7 = CCCCCCCCCCCCC(C)[C@H](CC(=O)[*:1])O[*:2]; X4 = NCCCN(CCC[C@H](N[*:1])C(=O)[*:2])[*:3]; X3 = CCCCCCCCCCCCC[C@H](CC(=O)[*:1])O[*:2]; X6 = NCCN(CCC[C@H](N[*:1])C(=O)[*:2])[*:3]; ξGln(3R-OH) = NC(=O)C[C@@H](O)C(N)C(=O)O; Dopa = N[C@@H](Cc1ccc(O)c(O)c1)C(=O)O; Pro(3S-OH) = O=C(O)[C@H]1NCC[C@@H]1O; X1 = NC(=O)CC(O)C(N[*:1])C(=O)[*:2]; d(aThr) = C[C@@H](O)[C@@H](N)C(=O)O; Hyp = O=C(O)[C@@H]1C[C@@H](O)CN1; X5 = NCCCN[C@@H](CCCN)C(=O)*; dOrn = NCCC[C@@H](N)C(=O)O; Orn = NCCC[C@H](N)C(=O)O

Columns and labels:
Candida albicans = test: Murine systemic candidiasis, survival; format: in vivo, mouse; details: Crj: CD-1 (ICR) mice; i.v. once just after infection; survival on day 7
Method: Mice of a conventional immunocompetent mouse strain, Crj: CD- 1 (ICR) were used for experimental infection models of systemic candidiasis. 4 weeks old Crj: CD-1 (ICR) mice were used for systemic candidiasis by injecting Candida albicans 5×10^6 conidia/mouse via the tail vein. Test compounds were intravenously (i.v.) given once just after infection for systemic candidiasis. 50% of effective dose (ED50) values were calculated from the survival number at each dose on day 7.

mouse hepatocytes = test: In vitro hepatotoxicity test; format: cell-based; details: mouse hepatocyte monolayers, exposed 1 day, morphological evaluation
Description: The mouse hepatocytes were isolated by a collagenase digestion and cultured in microtest plates. The hepatocyte monolayers were exposed to the test Aerothricins in the culture system for 1 day. After the culture period, the hepatocytes were observed under a microscope and evaluated morphologically. The degree of the morphological alteration (degeneration) of the hepatocytes by the test Aerothricins were compared with WF11243 and LY303366.

[1] = test system: Aspegillus fumigatus CF1003; test: In vitro antifungal activity, broth micro-dilution IC80; format: cell-based, Aspergillus fumigatus; details: YNB medium with 0.2% agarose, 1-2 days at 35° C.
Method: (§1) The in vitro antifungal activities of the representative Aerothricins of the present study were evaluated by determining the 80% inhibitory concentration (IC80), which was calculated as the lowest concentration of an antifungal to inhibit the growth of fungus to 20% turbidity compared with the drug-free control growth spectrophotometrically.
(§2) The IC80 values were determined by the broth micro-dilution procedure based on NCCLS Approved Standard with the following minor modifications (National Committee for Clinical Laboratory Standards. (1997) Reference method for broth dilution antifungal susceptibility testing for yeasts. Approved standard. Document M27-A). Yeast Nitrogen Base (YNB; Difco Lab.) supplemented with 1% glucose and 0.25% K2HPO4 was used as testing medium for yeasts, the same medium solidified with 0.2% low melting point agarose (BRL) was used for filamentous fungi. Inoculum size was 1-3×10^3 cells/ml, and incubation was performed for 1-2 days at 35° C.

[2] = test system: Scedosporium apiospermum CF1077; test: as above; format: cell-based; details: YNB medium with 0.2% agarose, 1-2 days at 35° C.
Method: as §1, §2

Candida albicans CY1002 = test: as above; format: cell-based; details: YNB medium, 1-2 days at 35° C.
Method: as §1, §2

Solubility = details: solvents in which soluble
[3] = Toxicity on repeated i.v. administration to mice; format: in vivo; details: 5 mg/kg and 30 mg/kg once daily i.v. for 2 weeks
A. fumigatus = test: Murine pulmonary aspergillosis, survival; format: in vivo, mouse; details: cortisone-treated ICR male mice; once daily for 4 days; survival on day 14
Method: Murine pulmonary aspergillosis was created in cortisone-treated (250 mg/kg, twice sub-cutaneous treatments on 3 days before and on the infection day) ICR male mouse. Conidia of A. fumigatus (2.5×10^5 conidia/mouse) were infected intratracheally to these mice, and treatments were carried out once daily for 4 days. The efficacy of each drug was determined from the survival number, and 50% of effective dose (ED50) was calculated from the survival number at each dose on the 14 days.

Row | SMILES | In vivo antifungal activity against systemic candidiasis in mice, ED50 on day 7 (Candida albicans) [mg/kg] | Cytotoxicity to hepatocyte (mouse hepatocytes) [µg/mL] | In vitro Antifungal activity, IC80 [1] [µg/mL] | In vitro Antifungal activity, IC80 [2] [µg/mL] | In vitro Antifungal activity, IC80 (Candida albicans CY1002) [µg/mL] | In vivo antifungal activity against pulmonary aspergillosis in mice, ED50 on day 14 (A. fumigatus) [mg/kg] | further results
1 | CCCCCCCCCCCCC[C@@H]1CC(=O)N[C@H]([C@@H](C)O)C(=O)N[C@H](C)C(=O)N[C@@H](Cc2ccc(O)cc2)C(=O)N[C@@H](C(C)C)C(=O)N2C[C@H](O)C[C@H]2C(=O)N[C@H]([C@@H](C)O)C(=O)N[C@@H]([C@@H](C)O)C(=O)N2CC[C@H](O)[C@H]2C(=O)NC([C@H](O)CC(N)=O)C(=O)NCC(=O)N[C@H]([C@@H](C)O)C(=O)N[C@@H](CCCNC(=O)[C@@H](CCCN)NC(=O)[C@@H](N)CCCN)C(=O)O1 (stereo partly drawn) [Aerothricin 133] ([d(aThr)][dA]YV[Hyp][d(aThr)]T[Pro(3S-OH)][ξGln(3R-OH)]G[d(aThr)][Orn]([dOrn-Orn]); linker N-C via X3) | 0.35 |  |  |  |  |  | 
2 | CCCCCCCCCCCCC[C@@H]1CC(=O)N[C@H]([C@@H](C)O)C(=O)N[C@H](C)C(=O)N[C@@H](Cc2ccc(O)cc2)C(=O)N[C@@H](C(C)C)C(=O)N2C[C@H](O)C[C@H]2C(=O)N[C@H]([C@@H](C)O)C(=O)N[C@@H]([C@@H](C)O)C(=O)N2CC[C@H](O)[C@H]2C(=O)NC(C(O)CC(N)=O)C(=O)NCC(=O)N[C@H]([C@@H](C)O)C(=O)N[C@@H](CCCN(CCCN)C(=O)[C@@H](CCCN)N(CCN)CCN)C(=O)O1 (stereo partly drawn) [Aerothricin 135] ([d(aThr)][dA]YV[Hyp][d(aThr)]T[Pro(3S-OH)][X1]G[d(aThr)][X4](NαBis(2-aminoethyl)dOrn); linker N-C via X3) | 0.35 | >100 | 0.37 | 0.35 | 0.41 |  | 
3 | CCCCCCCCCCCCC(C)[C@@H]1CC(=O)N[C@H]([C@@H](C)O)C(=O)N[C@H](C)C(=O)N[C@@H](Cc2ccc(O)cc2)C(=O)N[C@@H](C(C)C)C(=O)N2C[C@H](O)C[C@H]2C(=O)N[C@H]([C@@H](C)O)C(=O)N[C@@H]([C@@H](C)O)C(=O)N2CC[C@H](O)[C@H]2C(=O)NC(C(O)CC(N)=O)C(=O)NCC(=O)N[C@H]([C@@H](C)O)C(=O)N[C@@H](CCCN)C(=O)O1 (stereo partly drawn) [Aerothricin 1] ([d(aThr)][dA]YV[Hyp][d(aThr)]T[Pro(3S-OH)][X1]G[d(aThr)][Orn]; linker N-C via X7) |  |  |  |  |  |  | Solubility (Solubility): Soluble: water, methanol, dimethylsulfoxide
4 | CCCCCCCCCCCCC[C@@H]1CC(=O)N[C@H]([C@@H](C)O)C(=O)N[C@H](C)C(=O)N[C@@H](Cc2ccc(O)c(O)c2)C(=O)N[C@@H](C(C)C)C(=O)N2C[C@H](O)C[C@H]2C(=O)N[C@H]([C@@H](C)O)C(=O)N[C@@H]([C@@H](C)O)C(=O)N2CC[C@H](O)[C@H]2C(=O)NC(C(O)CC(N)=O)C(=O)NCC(=O)N[C@H]([C@@H](C)O)C(=O)N[C@@H](CCCN)C(=O)O1 (stereo partly drawn) [Aerothricin 2] ([d(aThr)][dA][Dopa]V[Hyp][d(aThr)]T[Pro(3S-OH)][X1]G[d(aThr)][Orn]; linker N-C via X3) |  |  |  |  |  |  | Solubility (Solubility): Soluble: water, methanol, dimethylsulfoxide
5 | CCCCCOc1ccc(-c2ccc(-c3ccc(C(=O)N[C@H]4C[C@@H](O)[C@@H](O)NC(=O)[C@@H]5[C@@H](O)[C@@H](C)CN5C(=O)[C@H]([C@@H](C)O)NC(=O)[C@H]([C@H](O)[C@@H](O)c5ccc(O)cc5)NC(=O)[C@@H]5C[C@@H](O)CN5C(=O)[C@H]([C@@H](C)O)NC4=O)cc3)cc2)cc1 [LY303366, reference compound] ({pTerphenylCO(4''-OnC5H11)}-[Orn(4R-OH,5R-OH)]T[Hyp][hTyr(3S-OH,4S-OH)]T[Pro(3S-OH,4S-Me)]; lactam 1-C) |  | 10 |  |  |  |  | 
6 | CCCCCCCCCCCCC[C@@H]1CC(=O)N[C@H]([C@@H](C)O)C(=O)N[C@H](C)C(=O)N[C@@H](Cc2ccc(O)cc2)C(=O)N[C@@H](C(C)C)C(=O)N2C[C@H](O)C[C@H]2C(=O)N[C@H]([C@@H](C)O)C(=O)N[C@@H]([C@@H](C)O)C(=O)N2CC[C@H](O)[C@H]2C(=O)NC(C(O)CC(N)=O)C(=O)NCC(=O)N[C@H]([C@@H](C)O)C(=O)N[C@@H](CCCN(CCCN)C(=O)[C@@H](N)CCCN)C(=O)O1 (stereo partly drawn) [Aerothricin 132] ([d(aThr)][dA]YV[Hyp][d(aThr)]T[Pro(3S-OH)][X1]G[d(aThr)][X2]; linker N-C via X3) | 0.43 | >100 | 2.9 | 0.38 | 0.28 | 5.2 | acute toxicity [3]: no acute toxicity
7 | CCCCCCCCCCCCC[C@@H]1CC(=O)N[C@H]([C@@H](C)O)C(=O)N[C@H](C)C(=O)N[C@@H](Cc2ccc(O)cc2)C(=O)N[C@@H](C(C)C)C(=O)N2C[C@H](O)C[C@H]2C(=O)N[C@H]([C@@H](C)O)C(=O)N[C@@H]([C@@H](C)O)C(=O)N2CC[C@H](O)[C@H]2C(=O)NC(C(O)CC(N)=O)C(=O)NCC(=O)N[C@H]([C@@H](C)O)C(=O)N[C@@H](CCCN(CCCN)C(=O)[C@H](CCCN)NCCCN)C(=O)O1 (stereo partly drawn) [Aerothricin 136] ([d(aThr)][dA]YV[Hyp][d(aThr)]T[Pro(3S-OH)][X1]G[d(aThr)][X4](X5); linker N-C via X3) |  |  | 0.38 | 0.34 | 0.33 |  | 
8 | CCCCCCCCCCCCC[C@@H]1CC(=O)N[C@H]([C@@H](C)O)C(=O)N[C@H](C)C(=O)N[C@@H](Cc2ccc(O)cc2)C(=O)N[C@@H](C(C)C)C(=O)N2C[C@H](O)C[C@H]2C(=O)N[C@H]([C@@H](C)O)C(=O)N[C@@H]([C@@H](C)O)C(=O)N2CC[C@H](O)[C@H]2C(=O)NC(C(O)CC(N)=O)C(=O)NCC(=O)N[C@H]([C@@H](C)O)C(=O)N[C@@H](CCCN(CCCN)C(=O)[C@H](CCCN)N(CCN)CCN)C(=O)O1 (stereo partly drawn) [Aerothricin 134] ([d(aThr)][dA]YV[Hyp][d(aThr)]T[Pro(3S-OH)][X1]G[d(aThr)][X4](Orn(Nα,Nα-(2-aminoethyl)2)); linker N-C via X3) |  | >100 | 0.58 | 0.37 | 0.37 | 5.8 | 
9 | CCCCCCCCCCCCC[C@@H]1CC(=O)N[C@H]([C@@H](C)O)C(=O)N[C@H](C)C(=O)N[C@@H](Cc2ccc(O)cc2)C(=O)N[C@@H](C(C)C)C(=O)N2C[C@H](O)C[C@H]2C(=O)N[C@H]([C@@H](C)O)C(=O)N[C@@H]([C@@H](C)O)C(=O)N2CC[C@H](O)[C@H]2C(=O)NC(C(O)CC(N)=O)C(=O)NCC(=O)N[C@H]([C@@H](C)O)C(=O)N[C@@H](CCCN(CCN)C(=O)[C@H](CCCN)N(CCN)CCN)C(=O)O1 (stereo partly drawn) [Aerothricin 137] ([d(aThr)][dA]YV[Hyp][d(aThr)]T[Pro(3S-OH)][X1]G[d(aThr)][X6](Orn(Nα,Nα-(2-aminoethyl)2)); linker N-C via X3) |  |  |  |  |  | 5.2 | 
